Experimental data reported in ChEMBL document CHEMBL1201862, “PubChem BioAssay data set” (2004).
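Compound exposure: 48 hours, 5 concentrations, 96-well plates. The concentration for 50% growth inhibition is given as GI50.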 Calls of active or inactive are those of the source. Rule as the data show it: active = GI50 up to about 1.1 µM and inactive = higher.

How the values were obtained:
Assay in all cases: NCI tumour cell line growth inhibition, 48 h
786-0 = system: 786-0
A498 = system: A498
ACHN = system: ACHN
BT-549 = system: BT-549
CAKI-1 = system: CAKI-1
CCRF-CEM = system: CCRF-CEM
COLO 205 = system: COLO 205
DU-145 = system: DU-145
EKVX = system: EKVX
HCC 2998 = system: HCC 2998
HCT-116 = system: HCT-116
HCT-15 = system: HCT-15
HL-60 = system: HL-60
HOP-62 = system: HOP-62
HOP-92 = system: HOP-92
HT-29 = system: HT-29
IGROV-1 = system: IGROV-1
K562 = system: K562
KM12 = system: KM12
LOX IMVI = system: LOX IMVI
MCF7 = system: MCF7
MDA-MB-231 = system: MDA-MB-231
MDA-MB-435 = system: MDA-MB-435
MDA-N = system: MDA-N
MOLT-4 = system: MOLT-4
Malme-3M = system: Malme-3M
NCI-H226 = system: NCI-H226
NCI-H23 = system: NCI-H23
NCI-H460 = system: NCI-H460
NCI-H522 = system: NCI-H522
OVCAR-3 = system: OVCAR-3
OVCAR-4 = system: OVCAR-4
OVCAR-5 = system: OVCAR-5
PC-3 = system: PC-3
RPMI-8226 = system: RPMI-8226
RXF 393 = system: RXF 393
SF-268 = system: SF-268
SF-295 = system: SF-295
SK-MEL-28 = system: SK-MEL-28
SK-MEL-2 = system: SK-MEL-2
SK-MEL-5 = system: SK-MEL-5
SK-OV-3 = system: SK-OV-3
SN12C = system: SN12C
SNB-19 = system: SNB-19
SR = system: SR
SW-620 = system: SW-620
TK-10 = system: TK-10
U-251 = system: U-251
UACC-257 = system: UACC-257
UACC-62 = system: UACC-62
UO-31 = system: UO-31
M14 = system: M14
NCI/ADR-RES = system: NCI/ADR-RES
OVCAR-8 = system: OVCAR-8
SF-539 = system: SF-539
SNB-75 = system: SNB-75
A549 = system: A549
Hs-578T = system: Hs-578T
T47D = system: T47D

SMILES: CC1(C)OCC(COC(=O)C=[N+]=[N-])O1 (stereo unspecified)
- GI50 (786-0): > 100 µM (inactive)
- GI50 (A498): > 100 µM (inactive)
- GI50 (ACHN): > 100 µM (inactive)
- GI50 (BT-549): > 100 µM (inactive)
- GI50 (CAKI-1): > 100 µM (inactive)
- GI50 (CCRF-CEM): > 100 µM (inactive)
- GI50 (COLO 205): > 100 µM (inactive)
- GI50 (DU-145): > 100 µM (inactive)
- GI50 (EKVX): > 100 µM (inactive)
- GI50 (HCC 2998): > 100 µM (inactive)
- GI50 (HCT-116): > 100 µM (inactive)
- GI50 (HCT-15): > 100 µM
- GI50 (HL-60): > 100 µM (inactive)
- GI50 (HOP-62): 79.8 µM (inactive)
- GI50 (HOP-92): 14.9 µM (inactive)
- GI50 (HT-29): > 100 µM (inactive)
- GI50 (IGROV-1): > 100 µM (inactive)
- GI50 (K562): > 10 µM (inactive)
- GI50 (KM12): > 100 µM (inactive)
- GI50 (LOX IMVI): > 100 µM (inactive)
- GI50 (MCF7): 46.5 µM (inactive)
- GI50 (MDA-MB-231): > 100 µM (inactive)
- GI50 (MDA-MB-435): > 100 µM (inactive)
- GI50 (MDA-N): > 100 µM (inactive)
- GI50 (MOLT-4): > 100 µM (inactive)
- GI50 (Malme-3M): > 100 µM (inactive)
- GI50 (NCI-H226): > 100 µM (inactive)
- GI50 (NCI-H23): > 100 µM (inactive)
- GI50 (NCI-H460): 13.2 µM (inactive)
- GI50 (NCI-H522): > 100 µM (inactive)
- GI50 (OVCAR-3): > 100 µM (inactive)
- GI50 (OVCAR-4): > 100 µM (inactive)
- GI50 (OVCAR-5): > 100 µM (inactive)
- GI50 (PC-3): > 100 µM (inactive)
- GI50 (RPMI-8226): > 100 µM (inactive)
- GI50 (RXF 393): > 100 µM (inactive)
- GI50 (SF-268): > 100 µM (inactive)
- GI50 (SF-295): > 100 µM (inactive)
- GI50 (SK-MEL-28): > 100 µM (inactive)
- GI50 (SK-MEL-2): > 100 µM (inactive)
- GI50 (SK-MEL-5): > 100 µM (inactive)
- GI50 (SK-OV-3): > 100 µM (inactive)
- GI50 (SN12C): > 100 µM (inactive)
- GI50 (SNB-19): > 100 µM (inactive)
- GI50 (SR): > 100 µM (inactive)
- GI50 (SW-620): > 100 µM (inactive)
- GI50 (TK-10): > 100 µM (inactive)
- GI50 (U-251): > 100 µM (inactive)
- GI50 (UACC-257): > 100 µM (inactive)
- GI50 (UACC-62): > 100 µM (inactive)
- GI50 (UO-31): > 100 µM (inactive)

SMILES: CS/C(=N\S(=O)(=O)c1ccc(Cl)cc1)NCCN/C(=N/S(=O)(=O)c1ccc(Cl)cc1)SC
- GI50 (786-0): 24.8 µM (inactive)
- GI50 (A498): 37.5 µM (inactive)
- GI50 (ACHN): > 100 µM (inactive)
- GI50 (CAKI-1): > 100 µM (inactive)
- GI50 (CCRF-CEM): > 100 µM (inactive)
- GI50 (COLO 205): > 100 µM (inactive)
- GI50 (DU-145): > 100 µM (inactive)
- GI50 (EKVX): 18.7 µM (inactive)
- GI50 (HCC 2998): > 100 µM (inactive)
- GI50 (HCT-116): > 100 µM (inactive)
- GI50 (HCT-15): > 100 µM
- GI50 (HL-60): > 100 µM (inactive)
- GI50 (HOP-62): 20.6 µM (inactive)
- GI50 (HOP-92): 14.2 µM (inactive)
- GI50 (HT-29): > 100 µM (inactive)
- GI50 (IGROV-1): > 100 µM (inactive)
- GI50 (K562): > 100 µM (inactive)
- GI50 (LOX IMVI): > 100 µM (inactive)
- GI50 (M14): > 100 µM (inactive)
- GI50 (MCF7): > 100 µM (inactive)
- GI50 (MDA-MB-231): > 100 µM (inactive)
- GI50 (MDA-MB-435): > 100 µM (inactive)
- GI50 (MDA-N): > 100 µM (inactive)
- GI50 (MOLT-4): > 100 µM (inactive)
- GI50 (Malme-3M): 49.8 µM (inactive)
- GI50 (NCI-H23): 48 µM (inactive)
- GI50 (NCI-H460): > 100 µM (inactive)
- GI50 (NCI-H522): 2.58 µM (inactive)
- GI50 (NCI/ADR-RES): > 100 µM (inactive)
- GI50 (OVCAR-3): 32 µM (inactive)
- GI50 (OVCAR-4): 2.3 µM (inactive)
- GI50 (OVCAR-5): > 100 µM (inactive)
- GI50 (OVCAR-8): 19.9 µM (inactive)
- GI50 (PC-3): 8.43 µM (inactive)
- GI50 (RPMI-8226): > 100 µM (inactive)
- GI50 (SF-268): 21.3 µM (inactive)
- GI50 (SF-295): 61.2 µM (inactive)
- GI50 (SF-539): 61.4 µM (inactive)
- GI50 (SK-MEL-28): > 100 µM (inactive)
- GI50 (SK-MEL-2): 30.1 µM (inactive)
- GI50 (SK-OV-3): 23.6 µM (inactive)
- GI50 (SN12C): > 100 µM (inactive)
- GI50 (SNB-19): 35.7 µM (inactive)
- GI50 (SNB-75): 24.4 µM (inactive)
- GI50 (SR): > 100 µM (inactive)
- GI50 (SW-620): > 100 µM (inactive)
- GI50 (TK-10): 31.6 µM (inactive)
- GI50 (U-251): 18 µM (inactive)
- GI50 (UACC-257): > 100 µM (inactive)
- GI50 (UACC-62): > 100 µM (inactive)
- GI50 (UO-31): > 100 µM (inactive)

SMILES: C#CC(O)/C=C/C(O)CCCC(O)CC#CC(O)C#CC(O)CCCC(O)/C=C/CCCC(=O)CCCCCCCCCCCCCCCC(O)C(O)C#CC(=O)O (stereo unspecified)
- GI50 (786-0): > 50 µM (inactive)
- GI50 (A549): > 50 µM (inactive)
- GI50 (ACHN): > 50 µM (inactive)
- GI50 (CAKI-1): > 50 µM (inactive)
- GI50 (CCRF-CEM): 14.1 µM (inactive)
- GI50 (COLO 205): > 50 µM (inactive)
- GI50 (DU-145): > 50 µM (inactive)
- GI50 (EKVX): > 50 µM (inactive)
- GI50 (HCC 2998): > 50 µM (inactive)
- GI50 (HCT-116): > 50 µM (inactive)
- GI50 (HCT-15): > 50 µM
- GI50 (HL-60): 13.2 µM (inactive)
- GI50 (HOP-62): > 50 µM (inactive)
- GI50 (HOP-92): > 50 µM (inactive)
- GI50 (HT-29): 28.1 µM (inactive)
- GI50 (Hs-578T): > 50 µM (inactive)
- GI50 (IGROV-1): 9.79 µM (inactive)
- GI50 (K562): > 50 µM (inactive)
- GI50 (KM12): > 50 µM (inactive)
- GI50 (LOX IMVI): 10.3 µM (inactive)
- GI50 (M14): > 50 µM (inactive)
- GI50 (MCF7): > 50 µM (inactive)
- GI50 (MDA-MB-231): > 50 µM (inactive)
- GI50 (MDA-MB-435): > 50 µM (inactive)
- GI50 (MDA-N): > 50 µM (inactive)
- GI50 (MOLT-4): 43.6 µM (inactive)
- GI50 (Malme-3M): > 50 µM (inactive)
- GI50 (NCI-H226): > 50 µM (inactive)
- GI50 (NCI-H23): > 50 µM (inactive)
- GI50 (NCI-H460): > 50 µM (inactive)
- GI50 (NCI-H522): 8.41 µM (inactive)
- GI50 (NCI/ADR-RES): > 50 µM (inactive)
- GI50 (OVCAR-4): 12.5 µM (inactive)
- GI50 (OVCAR-5): > 50 µM (inactive)
- GI50 (OVCAR-8): > 50 µM (inactive)
- GI50 (PC-3): > 50 µM (inactive)
- GI50 (RPMI-8226): > 50 µM (inactive)
- GI50 (RXF 393): > 50 µM (inactive)
- GI50 (SF-268): > 50 µM (inactive)
- GI50 (SF-295): > 50 µM (inactive)
- GI50 (SK-MEL-28): > 50 µM (inactive)
- GI50 (SK-MEL-2): > 50 µM (inactive)
- GI50 (SK-MEL-5): > 50 µM (inactive)
- GI50 (SK-OV-3): > 50 µM (inactive)
- GI50 (SN12C): > 50 µM (inactive)
- GI50 (SNB-19): > 50 µM (inactive)
- GI50 (SNB-75): 20.1 µM (inactive)
- GI50 (SR): 19.3 µM (inactive)
- GI50 (T47D): > 50 µM (inactive)
- GI50 (TK-10): > 50 µM (inactive)
- GI50 (U-251): > 50 µM (inactive)
- GI50 (UACC-257): > 50 µM (inactive)
- GI50 (UACC-62): > 50 µM (inactive)
- GI50 (UO-31): 10.8 µM (inactive)
